The numbers were not newly measured in patent US20230013142A1, “IODINE COMPOUNDS FOR TREATING RESPIRATORY PATHOGENS” (priority 2020, published 2023), which cites them from elsewhere.

The conditions of data set [1]: I2 and I- mixed solutions.
Another data set has as its system a variety of viruses. The following applies: on the skin.
In another data set the test system is parasite's acid vesicles. The note with it: biologically active concentrations.
The subject of the next data set is neuraminidase. The note with it: virucidal mechanism of action.
A further data set concerns viral haemagglutinin. The following applies: blockade of attachment to host cell receptors.
The conditions of data set [2]: rats, ingestion, 2-year period.

With `II` [iodine], the “air level considered immediately dangerous to life or health (IDLH)” value (air level) was 2 ppm. Besides, under “inhalation”, the “concentration at which reports of discomfort start (NIOSH)” value is given as 1.5 ppm and the “concentration at which work is difficult” value was 1.5-2 ppm. Besides, the “concentration at which short term exposure can be irritating (as low as)” value (inhalation, short term exposure) is reported as 0.1 ppm. Moreover, in data set [1] (at 50 degrees Centigrade), the “evaporation rate relative to 26 degrees (room temperature)” value is recorded as “over 10 times”. Moreover, in data set [1] (at 80 degrees), the “evaporation rate relative to 26 degrees” value is recorded as “over 30 times”. In addition, the “time for successful use against viruses” value in the data set on a variety of viruses was no more than 5 min. Moreover, the “concentration at which decreased virulence of viruses occurred” value in the data set on influenza viruses (in vitro) is reported as 0.005 ppm. In addition, the “concentration for complete inactivation of viruses” value with influenza viruses (within 1 minute in vitro) is recorded as 0.1 ppm.

Consider `CCN(CC)CCCC(C)Nc1ccnc2cc(Cl)ccc12` (centres unmarked) [chloroquine], for which the “time to increase of pH of acid vesicles” value in the data set on parasite's acid vesicles is reported as 3-5 min.

With “povidone iodine (2-Pyrrolidinone, 1-ethenyl-homopolymer) [PVP-I]”, in the data set on neuraminidase, the effect on neuraminidase result is “inhibition”. Also, the “effect on viral haemagglutinin” value in the data set on viral haemagglutinin is listed as “inhibits”.

For the compound `[I-].[K+]` [potassium iodide], in data set [2], the “concentration with long-term decrease in life span” value is listed as 100 ppm and the “concentration with no long-term effects” value is given as 10 ppm.
